These results are taken from patent US20220365087A1, “METHOD FOR ACQUIRING DATA FOR DISTINGUISHING PRESENCE OF CANCER CELLS AND/OR DISTINGUISHING ANTICANCER DRUG RESISTANCE, METHOD FOR ACQUIRING PREDICTION DATA, USE OF DISTINCTION MARKER IN SAME, AND DISTINGUISHING KIT” (KEIO UNIVERSITY, priority 2019, published 2022).

Assay [1] has as its system plasmid (pcDNA3.1 empty vector) double strand DNA. The experiment in a line: Gel shift assay of DNA supercoiling disturbance by cisplatin. Type of assay: biochemical. The conditions noted are these: 37° C. for 60 minutes; for effect on disturbance of double strand DNA supercoiling by cisplatin (CDDP): preincubation of plasmid with Na2Sn, then 60 μM CDDP. How it is done: To quantify the degree of DNA intercalation by cisplatin (CDDP) that disturbs DNA supercoiling, 1 μg of plasmid (pcDNA3.1 empty vector, #V79020, Invitrogen) was mixed with a predetermined concentration of Na2Sn (n=an integer of 1 to 4), and preincubated in 10 mM phosphate-buffered saline (PBS, pH6.0) at room temperature for 5 minutes. Then, a CDDP solution was added to the solution to obtain a final concentration of 60 μM. Thereafter, the mixed solution was incubated at 37° C. for 60 minutes. After the incubation, the reaction products in the mixed solution were separated by electrophoresis using 1% agarose gel for determination of the DNA secondary structure.
It was previously shown that cisplatin can disturb DNA supercoiling by being intercalated between bases of double-stranded DNA structures and causing structural changes (Non-patent Document 4). In this study, the present inventors determined in vitro that cisplatin induced change in the bulk molecular volume of supercoiling DNA, and the bulk molecular volume was recovered by addition of polysulfide (FIG. 3).
This can be inferred because of the enhanced reducing power of the polysulfide with the increase in the number of sulfur atoms.
(In general: Mobility shift assays separate free from complexed probe on a gel.)

Assay [2] relates to ovarian serous carcinoma (SC). The experiment in a line: Effectiveness of the anticancer drug in ovarian serous carcinoma. The class given is in vivo.
The subject of assay [3] is ovarian clear cell carcinoma (CCC). In words: Effectiveness of the anticancer drug in ovarian clear cell carcinoma. The class given is in vivo.

Structures are written as SMILES.

As to `[Na+].[Na+].[S-][S-]` [Na2S2], the “effect on disturbance of double strand DNA supercoiling by cisplatin (CDDP)” value (from here on “effect on disturbance”) in assay [1] was “attenuated”. With `[Na+].[Na+].[S-]S[S-]` [Na2S3], in assay [1], the “effect on disturbance” value is recorded as “attenuated”. On to `[Na+].[Na+].[S-]SS[S-]` [Na2S4], for which, in assay [1], the “effect on disturbance” value was “attenuated”. Turning to `[Na+].[Na+].[S-2]` [Na2S], the “effect on disturbance” value in assay [1] is “attenuated”. As to `N.N.[Cl][Pt][Cl]` [cisplatin], the “change in the bulk molecular volume of supercoiling double strand DNA” value in assay [1] (CDDP final concentration 60 μM, 1 μg plasmid, 1% agarose gel) is “increased the bulk molecular volume of double strand DNA”. Besides, the “effectiveness as an anticancer drug” value in assay [2] is reported as “more effective”; in assay [3] it was “less effective”.
